Patent US20230085307A1, “PYRIDAZINONE COMPOUND AND HERBICIDE” (NISSAN CHEMICAL CORPORATION, priority 2019, published 2023)

Experiments:
[1] = tested on: rice flat sedge; assay: Test Example 3: herbicidal effect by foliage application, Wagner pot (Table 18, symbol E); assay type: in vivo, rice flat sedge (Cyperus iria); details: amount of applied herbicide 320 g/ha
Summary of the method: (§1)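 Plants were sown in alluvial soil held under 0.1–0.5 cm standing water and grown 14 days in a greenhouse at 25–30 °C. An emulsifiable formulation, water-diluted to the set dose, was then sprayed onto the foliage, and effects were scored three weeks later using previously defined criteria.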

[2] = tested on: barnyard grass; assay: Test Example 3: herbicidal effect by foliage application, Wagner pot (Table 18, symbol H); assay type: in vivo, barnyard grass (Echinochloa crus-galli); details: amount of applied herbicide 320 g/ha
Summary of the method: as §1

[3] = tested on: redroot pigweed; assay: Test Example 4: herbicidal effect by soil treatment (Table 19, symbol N); assay type: in vivo, redroot pigweed (Amaranthus retroflexus); details: amount of applied herbicide 320 g/ha
Summary of the method: (§2)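 Three weeks of greenhouse growth at 25° C. to 30° C. followed a uniform surface spray of water-diluted emulsion at a predetermined herbicide amount. Seeds had been sown beforehand under about 1.5 cm of sterilized diluvial soil. Grading followed criteria set out in an earlier test.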

[4] = tested on: southern crabgrass; assay: Test Example 4: herbicidal effect by soil treatment (Table 19, symbol F); assay type: in vivo, southern crabgrass (Digitaria ciliaris); details: amount of applied herbicide 320 g/ha
Summary of the method: as §2

[5] = tested on: windgrass; assay: Test Example 5: herbicidal effect by foliage application, plastic box (Table 20, symbol L); assay type: in vivo, windgrass (Apera spica-venti); details: foliage application, 320 g/ha, three weeks after application
Summary of the method: (§3)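 Plants sown in sterilized diluvial soil and grown 14 days in a greenhouse at 25° C to 30° C, then sprayed on the foliage with the compound's emulsion diluted in water to a predetermined herbicide amount. Injury to weeds and crops scored three weeks after application on a visual rating scale.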

[6] = tested on: velvetleaf; assay: Test Example 5: herbicidal effect by foliage application, plastic box (Table 20, symbol M); assay type: in vivo, velvetleaf (Abutilon theophrasti); details: foliage application, 320 g/ha, three weeks after application
Summary of the method: as §3

[7] = tested on: blackgrass; assay: Test Example 5: herbicidal effect by foliage application, plastic box (Table 20, symbol J); assay type: in vivo, blackgrass (Alopecurus myosuroides); details: foliage application, 320 g/ha, three weeks after application
Summary of the method: as §3

[8] = tested on: barnyard grass; assay: Test Example 5: herbicidal effect by foliage application, plastic box (Table 20, symbol H); assay type: in vivo, barnyard grass (Echinochloa crus-galli); details: foliage application, 320 g/ha, three weeks after application
Summary of the method: as §3

[9] = tested on: persian speedwell; assay: Test Example 5: herbicidal effect by foliage application, plastic box (Table 20, symbol R); assay type: in vivo, Persian speedwell (Veronica persica); details: foliage application, 320 g/ha, three weeks after application
Summary of the method: as §3

[10] = tested on: Japanese bulrush; assay: Test Example 1: herbicidal activity, application before weed generation under submerged conditions (Table 16, symbol B); assay type: in vivo, Japanese bulrush (Schoenoplectus juncoides); details: amount of applied herbicide 320 g/ha
Summary of the method: (§4)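 Emulsion formulation, water-diluted to set dose, was put onto the flooded surface (4 cm depth, alluvial soil) the same day weeds were sown and 2.5-leaf rice transplanted. After 3 weeks at 25-30 °C under glass, each species was rated 0 (≤5% kill) to 5 (≥90% kill).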

[11] = tested on: Chinese sprangletop; assay: Test Example 3: herbicidal effect by foliage application, Wagner pot (Table 18, symbol D); assay type: in vivo, chinese sprangletop (Leptochloa chinensis); details: amount of applied herbicide 320 g/ha
Summary of the method: as §1

[12] = tested on: late watergrass; assay: Test Example 1: herbicidal activity, application before weed generation under submerged conditions (Table 16, symbol A); assay type: in vivo, late watergrass (Echinochloa oryzicola); details: amount of applied herbicide 320 g/ha
Summary of the method: as §4

[13] = tested on: Italian ryegrass; assay: Test Example 5: herbicidal effect by foliage application, plastic box (Table 20, symbol K); assay type: in vivo, Italian ryegrass (Lolium multiflorum); details: foliage application, 320 g/ha, three weeks after application
Summary of the method: as §3

[14] = tested on: green foxtail; assay: Test Example 4: herbicidal effect by soil treatment (Table 19, symbol G); assay type: in vivo, green foxtail (Setaria viridis); details: amount of applied herbicide 320 g/ha
Summary of the method: as §2

[15] = tested on: lambsquarters; assay: Test Example 5: herbicidal effect by foliage application, plastic box (Table 20, symbol O); assay type: in vivo, lambsquarters (Chenopodium album); details: foliage application, 320 g/ha, three weeks after application
Summary of the method: as §3

[16] = tested on: blackgrass; assay: Test Example 4: herbicidal effect by soil treatment (Table 19, symbol J); assay type: in vivo, blackgrass (Alopecurus myosuroides); details: amount of applied herbicide 320 g/ha
Summary of the method: as §2

[17] = tested on: green foxtail; assay: Test Example 5: herbicidal effect by foliage application, plastic box (Table 20, symbol G); assay type: in vivo, green foxtail (Setaria viridis); details: foliage application, 320 g/ha, three weeks after application
Summary of the method: as §3

Compound	Herbicidal effect on E (rice flat sedge), foliage application [1]	Herbicidal effect on H (barnyard grass), foliage application [2]	N: redroot pigweed, herbicidal effect grade [3]	F: southern crabgrass, herbicidal effect grade [4]	herbicidal effect on windgrass (L) [5]	herbicidal effect on velvetleaf (M) [6]	herbicidal effect on blackgrass (J) [7]	herbicidal effect on barnyard grass (H) [8]	herbicidal effect on persian speedwell (R) [9]	Herbicidal effect, B: Japanese bulrush [10]	Herbicidal effect on D (Chinese sprangletop), foliage application [11]	Herbicidal effect, A: late watergrass [12]	herbicidal effect on Italian ryegrass (K) [13]	G: green foxtail, herbicidal effect grade [14]	herbicidal effect on lambsquarters (O) [15]	J: blackgrass, herbicidal effect grade [16]	herbicidal effect on green foxtail (G) [17]
CCOc1ccc2c(-c3c(O)c(C)nn(C)c3=O)c(-c3ccccc3OC)sc2c1Cl [7-003]	5 (Herbicidal rate of 90% or more (almost completely withered))	4 (Herbicidal rate of 70% or more and less than 90%)	5 (Herbicidal rate of 90% or more (almost completely withered))	0 (Herbicidal rate of 5% or less (almost no effect))	3 (Herbicidal rate of 40% or more and less than 70%)	5 (Herbicidal rate of 90% or more (almost completely withered))	4 (Herbicidal rate of 70% or more and less than 90%)	2 (Herbicidal rate of 20% or more and less than 40%)	5 (Herbicidal rate of 90% or more (almost completely withered))	3 (Herbicidal rate of 40% or more and less than 70%)	3 (Herbicidal rate of 40% or more and less than 70%)	2 (Herbicidal rate of 20% or more and less than 40%)	4 (Herbicidal rate of 70% or more and less than 90%)	0 (Herbicidal rate of 5% or less (almost no effect))	5 (Herbicidal rate of 90% or more (almost completely withered))	0 (Herbicidal rate of 5% or less (almost no effect))	4 (Herbicidal rate of 70% or more and less than 90%)
CCOc1ccccc1-c1sc2c(Cl)c(OCC)ccc2c1-c1c(O)c(C)nn(C)c1=O [7-004]	5 (Herbicidal rate of 90% or more (almost completely withered))	5 (Herbicidal rate of 90% or more (almost completely withered))	4 (Herbicidal rate of 70% or more and less than 90%)	3 (Herbicidal rate of 40% or more and less than 70%)	0 (Herbicidal rate of 5% or less (almost no effect))	4 (Herbicidal rate of 70% or more and less than 90%)	5 (Herbicidal rate of 90% or more (almost completely withered))	5 (Herbicidal rate of 90% or more (almost completely withered))	5 (Herbicidal rate of 90% or more (almost completely withered))	3 (Herbicidal rate of 40% or more and less than 70%)	5 (Herbicidal rate of 90% or more (almost completely withered))	3 (Herbicidal rate of 40% or more and less than 70%)	4 (Herbicidal rate of 70% or more and less than 90%)	5 (Herbicidal rate of 90% or more (almost completely withered))	4 (Herbicidal rate of 70% or more and less than 90%)	0 (Herbicidal rate of 5% or less (almost no effect))	5 (Herbicidal rate of 90% or more (almost completely withered))
Cc1nn(C)c(=O)c(-c2c(-c3ccc(OCC(F)(F)F)cc3)oc3ccccc23)c1O [8-005]	4 (Herbicidal rate of 70% or more and less than 90%)	5 (Herbicidal rate of 90% or more (almost completely withered))	5 (Herbicidal rate of 90% or more (almost completely withered))	4 (Herbicidal rate of 70% or more and less than 90%)	3 (Herbicidal rate of 40% or more and less than 70%)	5 (Herbicidal rate of 90% or more (almost completely withered))	4 (Herbicidal rate of 70% or more and less than 90%)	5 (Herbicidal rate of 90% or more (almost completely withered))	5 (Herbicidal rate of 90% or more (almost completely withered))	5 (Herbicidal rate of 90% or more (almost completely withered))	4 (Herbicidal rate of 70% or more and less than 90%)	5 (Herbicidal rate of 90% or more (almost completely withered))	5 (Herbicidal rate of 90% or more (almost completely withered))	4 (Herbicidal rate of 70% or more and less than 90%)	5 (Herbicidal rate of 90% or more (almost completely withered))	3 (Herbicidal rate of 40% or more and less than 70%)	5 (Herbicidal rate of 90% or more (almost completely withered))
CSCCOc1ccc(-c2oc3ccccc3c2-c2c(O)c(C)nn(C)c2=O)cc1 [8-008]	4 (Herbicidal rate of 70% or more and less than 90%)	5 (Herbicidal rate of 90% or more (almost completely withered))	4 (Herbicidal rate of 70% or more and less than 90%)	3 (Herbicidal rate of 40% or more and less than 70%)	4 (Herbicidal rate of 70% or more and less than 90%)	5 (Herbicidal rate of 90% or more (almost completely withered))	5 (Herbicidal rate of 90% or more (almost completely withered))	5 (Herbicidal rate of 90% or more (almost completely withered))	5 (Herbicidal rate of 90% or more (almost completely withered))	5 (Herbicidal rate of 90% or more (almost completely withered))	4 (Herbicidal rate of 70% or more and less than 90%)	5 (Herbicidal rate of 90% or more (almost completely withered))	5 (Herbicidal rate of 90% or more (almost completely withered))	1 (Herbicidal rate of 5% or more and less than 20%)	3 (Herbicidal rate of 40% or more and less than 70%)	0 (Herbicidal rate of 5% or less (almost no effect))	5 (Herbicidal rate of 90% or more (almost completely withered))
COc1ccc(-c2oc3ccc(Cl)cc3c2-c2c(O)c(C)nn(C)c2=O)cc1 [9-002]	2 (Herbicidal rate of 20% or more and less than 40%)	3 (Herbicidal rate of 40% or more and less than 70%)	4 (Herbicidal rate of 70% or more and less than 90%)	2 (Herbicidal rate of 20% or more and less than 40%)	1 (Herbicidal rate of 5% or more and less than 20%)	5 (Herbicidal rate of 90% or more (almost completely withered))	0 (Herbicidal rate of 5% or less (almost no effect))	0 (Herbicidal rate of 5% or less (almost no effect))	5 (Herbicidal rate of 90% or more (almost completely withered))	3 (Herbicidal rate of 40% or more and less than 70%)	0 (Herbicidal rate of 5% or less (almost no effect))	0 (Herbicidal rate of 5% or less (almost no effect))	3 (Herbicidal rate of 40% or more and less than 70%)	1 (Herbicidal rate of 5% or more and less than 20%)	4 (Herbicidal rate of 70% or more and less than 90%)	1 (Herbicidal rate of 5% or more and less than 20%)	0 (Herbicidal rate of 5% or less (almost no effect))
